Measured values taken from patent US4175081A, “5-Substituted thiadiazole ureas” (priority 1977, dated 1979).

Key:
Crabgrass (CG) [1] = test: Pre-emergence herbicide test; type: in vivo, Digitaria sanquinalis; conditions: Digitaria sanguinalis, pre-emergence, 336 h, two weeks after treatment
Experimental: (§1) Crabgrass (CG)--Digitaria sanquinalis
(§2) All crop and weed species were planted individually in 3' plastic pots containing potting soil. Four seeds each of corn, cotton, and snapbeans were seeded to a depth equal to the diameter of the seed. All other species were surface seeded and sprinkled with screened soil in an amount sufficient to cover the seed. Immediately after planting, all pots were watered by sub-irrigation in greenhouse trays. Pots for the pre-emergence phase were seeded one day before treatment.
(§3) Spray hood constants required to deliver the above volume are as follows:
(§4) Formulations for spray applications were prepared in 50 ml volumes with the following three components: […]
(§5) Spray applications were made in a hood containing a removable belt and fixed spray nozzle. For passage through the spray hood, one pot of each specie (pre-emergence phase) was placed on the rear half of the flat. Treatments were removed to the greenhouse after spraying. Watering during the observation period was done only by sub-irrigation.
(§6) Two weeks after treatment, pre- and post-emergence injury or control was visually rated, and the results were as shown in the following tables. Pre-emergence data are provided in TABLE III and post-emergence data are provided in TABLE IV, for compounds having the formula illustrated in TABLE I. Correspondingly, pre-emergence and post-emergence data, respectively, are set forth in TABLES V AND VI, for compounds having the formula illustrated in TABLE II.

Johnson grass (JG) [2] = test: Pre-emergence herbicide test; type: in vivo, Sorgum helepense; conditions: Sorghum halepense, 336 h, two weeks after treatment
Experimental: (§7) Johnson grass (JG)--Sorgum helepense
as §2
(§8) Compounds were tested at rates of application equivalent to 8 lbs. of actual compound per acre in a spray volume of 38 gallons per acre. Spray hood constants required to deliver the above volume are as follows:
(§9) Formulations for spray applications were prepared in 50 ml volumes with the following three components:
(§10) Formulations for the 4 lbs/acre rate were prepared by adjusting the amount of active ingredient accordingly.
as §5, §6

Barnyard grass (BG) [3] = test: Pre-emergence herbicide test; type: in vivo; conditions: Echinochloa crus-galli, 336 h, two weeks after treatment
Experimental: (§11) Barnyard grass (BG)--Echinochloa crus-galli
as §2, §8, §9, §10, §5, §6

Turnip (TP) [4] = test: Pre-emergence herbicide test; type: in vivo, Brassica sp.; conditions: Brassica rapa, pre-emergence, 336 h, two weeks after treatment
Experimental: (§12) Turnip (TP)--Brassica sp.
as §2, §3, §4, §5, §6

Cotton (CT) [5] = test: Pre-emergence herbicide test; type: in vivo, Gossypium hirsutum var. DPL smooth leaf; conditions: Gossypium hirsutum, 336 h, two weeks after treatment
Experimental: (§13) Cotton (CT)--Gossypium hirsutum var. DPL smooth leaf
as §2, §8, §9, §10, §5, §6

Corn (CN) [6] = test: Pre-emergence herbicide test; type: in vivo; conditions: Zea mays, 336 h, 2 lb/acre, two weeks after treatment
Experimental: as §2, §8, §9, §10, §5, §6

Bean (BN) [7] = test: Pre-emergence herbicide test; type: in vivo, Phaseolus vulgaris var. Black Valentine; conditions: Phaseolus vulgaris, 336 h, two weeks after treatment
Experimental: (§14) Bean (BN)--Phaseolus vulgaris var. Black Valentine
as §2, §8, §9, §10, §5, §6

Crabgrass (CG) [8] = test: Post-emergence herbicide test; type: in vivo, Digitaria sanquinalis; conditions: Digitaria sanguinalis, post-emergence, 336 h, two weeks after treatment; for pest or weed control: 2 lb/acre; for pest or weed control at 4483.4 g/ha: 4 lb/acre; for pest or weed control at 1120.85 g/ha: 1 lb/acre
Experimental: as §1, §2
(§15) Planting dates for the post-emergence phase were varied so that all seedlings would reach the desired stage of development simultaneously. The proper stage of seedling development for treatment in the post-emergence phase is as follows:
as §3, §4, §5, §6

Johnson grass (JG) [9] = test: Post-emergence herbicide test; type: in vivo, Sorgum helepense; conditions: Sorghum halepense, 336 h, two weeks after treatment; for pest or weed control: 2 lb/acre; for pest or weed control at 4483.4 g/ha: 4 lb/acre; for pest or weed control at 1120.85 g/ha: 1 lb/acre
Experimental: as §7, §2, §15, §8, §9, §10, §5, §6

Barnyard grass (BG) [10] = test: Post-emergence herbicide test; type: in vivo; conditions: Echinochloa crus-galli, 336 h, two weeks after treatment; for pest or weed control at 2241.7 g/ha: 2 lb/acre; for pest or weed control at 4483.4 g/ha: 4 lb/acre; for pest or weed control at 1120.85 g/ha: 1 lb/acre
Experimental: as §11, §2, §15, §8, §9, §10, §5, §6

Turnip (TP) [11] = test: Post-emergence herbicide test; type: in vivo, Brassica sp.; conditions: Brassica rapa, post-emergence, 336 h, two weeks after treatment; for pest or weed control at 2241.7 g/ha: 2 lb/acre; for pest or weed control at 4483.4 g/ha: 4 lb/acre; for pest or weed control at 1120.85 g/ha: 1 lb/acre
Experimental: as §12, §2, §15
Pigweed and turnips: 1 or 2 true leaves above visible cotyledons.
as §3, §4, §5, §6

Cotton (CT) [12] = test: Post-emergence herbicide test; type: in vivo, Gossypium hirsutum var. DPL smooth leaf; conditions: Gossypium hirsutum, post-emergence, 336 h, two weeks after treatment; for pest or weed control at 2241.7 g/ha: 2 lb/acre; for pest or weed control at 4483.4 g/ha: 4 lb/acre; for pest or weed control at 1120.85 g/ha: 1 lb/acre
Experimental: as §13, §2, §15
Cotton: first true leaf 1' in length; expanded cotyledons.
as §3, §9, §10, §5, §6

Corn (CN) [13] = test: Post-emergence herbicide test; type: in vivo; conditions: Zea mays, 336 h, two weeks after treatment; for pest or weed control: 2 lb/acre; for pest or weed control at 4483.4 g/ha: 4 lb/acre; for pest or weed control at 1120.85 g/ha: 1 lb/acre
Experimental: as §2, §15, §8, §9, §10, §5, §6

Bean (BN) [14] = test: Post-emergence herbicide test; type: in vivo, Phaseolus vulgaris var. Black Valentine; conditions: Phaseolus vulgaris, post-emergence, 336 h, two weeks after treatment; for pest or weed control at 2241.7 g/ha: 2 lb/acre; for pest or weed control at 4483.4 g/ha: 4 lb/acre; for pest or weed control at 1120.85 g/ha: 1 lb/acre
Experimental: as §14, §2, §15
Beans: primary leaves expanded, growing point at primary leaf nodes.
as §3, §9, §10, §5, §6

SMILES	pest or weed control (Crabgrass (CG) [8]) [%]	pest or weed control (Johnson grass (JG) [9]) [%]	pest or weed control at 2241.7 g/ha (Barnyard grass (BG) [10]) [%]	pest or weed control at 2241.7 g/ha (Turnip (TP) [11]) [%]	pest or weed control at 2241.7 g/ha (Cotton (CT) [12]) [%]	pest or weed control (Corn (CN) [13]) [%]	pest or weed control at 2241.7 g/ha (Bean (BN) [14]) [%]	pest or weed control at 4483.4 g/ha (Crabgrass (CG) [8]) [%]	pest or weed control at 4483.4 g/ha (Johnson grass (JG) [9]) [%]	pest or weed control at 4483.4 g/ha (Barnyard grass (BG) [10]) [%]	pest or weed control at 4483.4 g/ha (Turnip (TP) [11]) [%]	pest or weed control at 4483.4 g/ha (Cotton (CT) [12]) [%]	pest or weed control at 4483.4 g/ha (Corn (CN) [13]) [%]	pest or weed control at 4483.4 g/ha (Bean (BN) [14]) [%]	also measured
C=CCSc1nnc(NC(=O)NC)s1 [Example 39, 1-Methyl-3-[5-Allythio-2-(1,3,4-Thiadiazolyl)] Urea]	80	80	90	80	100	50	100								pest or weed control (Crabgrass (CG) [1]; 2 lb/acre): 60%; pest or weed control at 2241.7 g/ha (Johnson grass (JG) [2]; 2 lb/acre): 30%; pest or weed control at 2241.7 g/ha (Barnyard grass (BG) [3]; 2 lb/acre): 50%; pest or weed control at 2241.7 g/ha (Turnip (TP) [4]; 2 lb/acre): 70%; pest or weed control at 2241.7 g/ha (Cotton (CT) [5]; 2 lb/acre): 50%; pest or weed control at 2241.7 g/ha (Corn (CN) [6]): 10%; pest or weed control at 2241.7 g/ha (Bean (BN) [7]; 2 lb/acre): 40%
CNC(=O)Nc1nnc(SC(C)C)s1 [Example 40, 1-Methyl-3-[5-Isopropylthio-2-(1,3,4-Thiadiazolyl)]Urea]								90	70	50	100	100	40	100	pest or weed control at 4483.4 g/ha (Crabgrass (CG) [1]; 4 lb/acre): 50%; pest or weed control at 4483.4 g/ha (Johnson grass (JG) [2]; 4 lb/acre): 30%; pest or weed control at 4483.4 g/ha (Barnyard grass (BG) [3]; 4 lb/acre): 40%; pest or weed control at 4483.4 g/ha (Turnip (TP) [4]; 4 lb/acre): 100%; pest or weed control at 4483.4 g/ha (Cotton (CT) [5]; 4 lb/acre): 30%; pest or weed control at 4483.4 g/ha (Bean (BN) [7]; 4 lb/acre): 10%
CNC(=O)Nc1nnc(SCC(C)C)s1 [Example 44]	90	80	90	80	100	60	100								pest or weed control at 1120.85 g/ha (Crabgrass (CG) [8]): 80%; pest or weed control at 1120.85 g/ha (Johnson grass (JG) [9]): 60%; pest or weed control at 1120.85 g/ha (Barnyard grass (BG) [10]): 80%; pest or weed control at 1120.85 g/ha (Turnip (TP) [11]): 40%; pest or weed control at 1120.85 g/ha (Cotton (CT) [12]): 100%; pest or weed control at 1120.85 g/ha (Corn (CN) [13]): 60%; pest or weed control at 1120.85 g/ha (Bean (BN) [14]): 80%
CCCCSc1nnc(NC(=O)NC)s1 [Example 45]	90	90	80	70	100	60	100								pest or weed control at 1120.85 g/ha (Crabgrass (CG) [8]): 90%; pest or weed control at 1120.85 g/ha (Johnson grass (JG) [9]): 60%; pest or weed control at 1120.85 g/ha (Barnyard grass (BG) [10]): 90%; pest or weed control at 1120.85 g/ha (Turnip (TP) [11]): 50%; pest or weed control at 1120.85 g/ha (Cotton (CT) [12]): 100%; pest or weed control at 1120.85 g/ha (Corn (CN) [13]): 70%; pest or weed control at 1120.85 g/ha (Bean (BN) [14]): 90%
CNC(=O)Nc1nnc(SCc2ccccc2)s1 [Example 46]								70	70	70	100	100	30	90	
CCCCCCS(=O)(=O)c1nnc(NC(=O)NC)s1 [Example 58]								50	30	20	80	50	20	70	
CCCCCSc1nnc(NC(=O)NC)s1 [Example 59]								90	80	70	100	100	40	100	
